Assay results as given in patent US8785351B2, “Herbicidal compositions containing bentazon and ALS inhibitor and ACCase inhibitor” (Dow AgroSciences LLC, priority 2012, dated 2014).

Key:
Assay in all cases: Postemergence herbicidal activity of mixtures in the field (direct-seeded rice), visual weed control
Type in all cases: in vivo
[1] = tested on: Echinochloa crus-galli (ECHCG, barnyardgrass); conditions: rice field trials
Experimental: (§1) Evaluation of Postemergence Herbicidal Activity of Mixtures in the Field
(§2) Field trials were conducted in Vietnam and Taiwan in cultivated direct-seeded rice using standard herbicide small plot research methodology. Plots varied from 1×2 meter (m) to 4×5 m (width×length) with 3-4 replicates per treatment. The rice crop was grown using normal cultural practices for fertilization, seeding, watering, flooding and maintenance to ensure good growth of the crop and the weeds.
(§3) All treatments in the field trials were applied using a backpack air sprayer with flat fan nozzles calibrated to apply 320 to 450 L/ha spray volume at approximately 30 PSI. Commercially available products of penoxsulam (Clipper 25OD), bispyribac-sodium (Nominee 100SC), bentazon-sodium (Basagran 480SL), cyhalofop-butyl (Clincher 100EC), and fenoxaprop-P-ethyl (Whip S) were mixed in water at appropriate formulated product rates to achieve the desired rates based on a unit area of application (hectare) to achieve the desired rates as shown. Treatments were rated at 7 to 42 days after application (DAA) as compared to the untreated control plants. Visual weed control was scored on a scale of 0 to 100 percent where 0 corresponds to no injury and 100 corresponds to complete kill.
(§4) All treatment results, both for the single product and mixtures, are an average of 3 to 4 replicates and the tank mix interactions are significant at the […] level.
(§5) Colby's equation was used to determine the herbicidal effects expected from the mixtures (Colby, S. R. Calculation of the synergistic and antagonistic response of herbicide combinations. Weeds 1967, 15, 20-22.).
(§6) The following equation was used to calculate the expected activity of mixtures containing […]: Expected=A+B+C−(AB+AC+BC)/100+(ABC)/10,000
(§7) A=observed efficacy of active ingredient A at the same concentration as used in the mixture.
(§8) B=observed efficacy of active ingredient B at the same concentration as used in the mixture.
(§9) C=observed efficacy of active ingredient C at the same concentration as used in the mixture.
(§10) All comparisons are an average of 3 to 4 replicates and are significant at the […] level.

[2] = tested on: Cyperus iria (CYPIR, rice flatsedge); conditions: grams ai/ha: penoxsulam 1, bentazon-Na 112.5, cyhalofop-butyl 9.4, each alone or all three mixed, rice field trials
Experimental: as §1, §2, §3, §4, §5, §6, §7, §8, §9, §10

[3] = tested on: Fimbristylis miliacea (FIMMI, globe fringerush); conditions: grams ai/ha: penoxsulam 10, bentazon-Na 900, cyhalofop-butyl 75, each alone or all three mixed, rice field trials
Experimental: as §1, §2, §3, §4, §5, §6, §7, §8, §9, §10

[4] = tested on: Leptochloa chinensis (LEFCH, Chinese sprangletop); conditions: grams ai/ha: penoxsulam 1.6, bentazon-Na 112.5, cyhalofop-butyl 37.5, each alone or all three mixed, rice field trials
Experimental: as §1, §2, §3, §4, §5, §6, §7, §8, §9, §10

[5] = tested on: Monochoria vaginalis (MOOVA, monochoria); conditions: rice field trials
Experimental: as §1, §2, §3, §4, §5, §6, §7, §8, §9, §10

[6] = grams ai/ha: bispyribac-Na 4, bentazon-Na 225, cyhalofop-butyl 75, each alone or all three mixed
[7] = grams ai/ha: penoxsulam 4 alone (6 in the mix), bentazon-Na 450, fenoxaprop-P-ethyl 8, each alone or all three mixed
[8] = grams ai/ha: penoxsulam 10, bentazon-Na 900, cyhalofop-butyl 75, each alone or all three mixed
[9] = grams ai/ha: penoxsulam 5, bentazon-Na 450, cyhalofop-butyl 37.5, each alone or all three mixed

Structure (SMILES)	% Visual Control ECHCG (14 DAA) Obs [1, 6] [%]	% Visual Control CYPIR (42 DAA) Obs [2] [%]	% Visual Control ECHCG (7 DAA) Obs [1, 7] [%]	% Visual Control ECHCG (7 DAA) Obs [1, 8] [%]	% Visual Control ECHCG (14 DAA) Obs [1, 8] [%]	% Visual Control ECHCG (28 DAA) Obs [1, 8] [%]	% Visual Control FIMMI (42 DAA) Obs [3] [%]	% Visual Control LEFCH (7 DAA) Obs [4] [%]	% Visual Control MOOVA (7 DAA) Obs [5, 7] [%]	% Visual Control MOOVA (7 DAA) Obs [5, 9] [%]	% Visual Control MOOVA (14 DAA) Obs [5, 9] [%]
COc1cc(OC)nc(Oc2cccc(Oc3nc(OC)cc(OC)n3)c2C(=O)[O-])n1.[Na+] [Bispyribac (Na), sodium 2,6-bis(4,6-dimethoxypyrimidin-2-yloxy)benzoate]	0										
COc1cnc(OC)n2nc(NS(=O)(=O)c3c(OCC(F)F)cccc3C(F)(F)F)nc12 [Penoxsulam, 2-(2,2-difluoroethoxy)-N-(5,8-dimethoxy[1,2,4]triazolo[1,5-c]pyrimidin-2-yl)-6-(trifluoromethyl)benzenesulfonamide]		75	61	58	60	60	78	0	22	77	87
CCCCOC(=O)[C@@H](C)Oc1ccc(Oc2ccc(C#N)cc2F)cc1 [Cyhalofop (Butyl), (R)-butyl 2-[4-(4-cyano-2-fluorophenoxy)phenoxy]propanoate]	40	0		37	43	40	60	83		0	0
CC(C)N1C(=O)c2ccccc2NS1(=O)=O [Bentazon (Na), 3-(1-methylethyl)-1H-2,1,3-benzothiadiazin-4(3H)-one 2,2-dioxide]	0	63	0	0	0	0	0	0	17	0	0
CCOC(=O)[C@@H](C)Oc1ccc(Oc2nc3ccc(Cl)cc3o2)cc1 [Fenoxaprop-P (Ethyl), (R)-ethyl-2-[4-(6-chloro-1,3-benzoxazol-2-yloxy)phenoxy]propanoate]			0						0		
